Consider 31 compounds from patent US9540391B2, “Isomannide derivatives as inhibitors of soluble epoxide hydrolase” (SANOFI, priority 2013, dated 2017).

The experiment deals with T1, recombinant sEH (Homo sapiens, UniProt P34913).
T1 construct: made in house; host or cells: Sf9 insect cells
T1 sequence (P34913 1-555): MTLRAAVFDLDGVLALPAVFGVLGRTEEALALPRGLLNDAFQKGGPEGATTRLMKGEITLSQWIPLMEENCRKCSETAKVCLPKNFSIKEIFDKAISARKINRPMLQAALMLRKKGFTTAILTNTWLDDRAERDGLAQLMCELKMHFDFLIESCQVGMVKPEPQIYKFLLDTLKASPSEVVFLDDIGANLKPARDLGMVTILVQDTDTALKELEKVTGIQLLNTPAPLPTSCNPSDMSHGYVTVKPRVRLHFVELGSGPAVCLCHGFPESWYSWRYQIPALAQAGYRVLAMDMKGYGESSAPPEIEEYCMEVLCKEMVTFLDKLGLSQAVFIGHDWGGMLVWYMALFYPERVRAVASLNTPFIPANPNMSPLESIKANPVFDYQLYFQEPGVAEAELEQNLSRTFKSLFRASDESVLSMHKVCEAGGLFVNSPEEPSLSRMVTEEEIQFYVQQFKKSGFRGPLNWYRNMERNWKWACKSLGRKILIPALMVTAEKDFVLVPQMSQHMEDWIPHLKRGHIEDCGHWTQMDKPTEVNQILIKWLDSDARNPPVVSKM
Description: biochemical screening assay for inhibition of soluble epoxide hydrolase (fluorometric, Phome substrate). A digest of the protocol: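 Reading fluorescence before substrate addition and after completion corrected for autofluorescence. Reaction: 5 μM Phome, 2 nM recombinant human sEH (Sf9-expressed), compound 0.0001–10 μM, 25 mM Hepes with 0.01% albumin, 15 min pre-incubation then 60 min at 30 °C; IC50 derived from % inhibition.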

Where a name gives a salt, the structure may show the parent alone.

As usually defined, the IC50 is the midpoint of a concentration-inhibition curve. In the case of `O=C(Nc1ccc(F)cc1)N[C@H]1CO[C@H]2[C@@H]1OC[C@@H]2/C=C\c1ccsc1` [Example 340, 1-(4-Fluoro-phenyl)-3-[(3S,3aR,6S,6aR)-6-((Z)-2-thiophen-3-yl-vinyl)-hexahydro-furo[3,2-b]furan-3-yl]-urea], the IC50 is 89 nM.

In the case of `O=C(Nc1ccc2c(c1)CCC2)N[C@H]1CO[C@H]2[C@@H]1OC[C@@H]2/C=C\c1ccsc1` [Example 341, 1-Indan-5-yl-3-[(3S,3aR,6S,6aR)-6-((Z)-2-thiophen-3-yl-vinyl)-hexa-hydro-furo[3,2-b]furan-3-yl]-urea], the IC50 came out at 90 nM.

For `O=C(Nc1ccc(C(F)(F)F)cc1)NC1COC2C(C=Cc3ccsc3)COC12` [Example 342, 1-[(3S,3aR,6S,6aR)-6-((Z)-2-Thio-phen-3-yl-vinyl)-hexahydro-furo[3,2-b]furan-3-yl]-3-(4-trifluoromethyl-phenyl)-urea], the IC50 turned out to be 17 nM.

Turning to `COC(=O)c1cccc(NC(=O)N[C@H]2CO[C@H]3[C@@H]2OC[C@@H]3/C=C\c2ccsc2)c1` [Example 343, 3-{3-[(3S,3aR,6S,6aR)-6-((Z)-2-Thiophen-3-yl-vinyl)-hexahydro-furo[3,2-b]furan-3-yl]-ureido}-benzoic acid methyl ester], the IC50 is 102 nM.

As to `O=C(NCCc1ccccc1)N[C@H]1CO[C@H]2[C@@H]1OC[C@@H]2/C=C\c1ccsc1` [Example 344, 1-Phenethyl-3-[(3S,3aR,6S,6aR)-6-((Z)-2-thiophen-3-yl-vinyl)-hexa-hydro-furo[3,2-b]furan-3-yl]-urea], the IC50 came to 42 nM.

As to `O=C(Nc1ccc(OC(F)(F)F)cc1)N[C@H]1CO[C@H]2[C@@H]1OC[C@@H]2/C=C\c1ccsc1` [Example 345, 1-[(3S,3aR,6S,6aR)-6-((Z)-2-Thiophen-3-yl-vinyl)-hexahydro-furo[3,2-b]furan-3-yl]-3-(4-trifluoromethoxy-phenyl)-urea], the IC50 was 11 nM.

Consider `O=C(Nc1cccc(C(F)(F)F)c1)N[C@H]1CO[C@H]2[C@@H]1OC[C@@H]2/C=C\c1ccsc1` [Example 346, 1-[(3S,3aR,6S,6aR)-6-((Z)-2-Thiophen-3-yl-vinyl)-hexahydro-furo[3,2-b]furan-3-yl]-3-(3-trifluoromethyl-phenyl)-urea], for which the IC50 is 62 nM.

For `O=C(NC1CCCCC1)N[C@H]1CO[C@@H]2[C@@H](CCc3ccc4c(c3)OCO4)CO[C@@H]21` [Example 347, 1-[(3S,3aR,6S,6aR)-6-(2-benzo[1,3]dioxol-5-yl-ethyl)-hexahydro-furo[3,2-b]furan-3-yl]-3-cyclohexyl-urea], the IC50 is 128 nM.

`O=C(Nc1ccc2c(c1)OCO2)NC1COC2C(CCc3ccccc3)COC12` [Example 348, 1-Benzo[1,3]dioxol-5-yl-3-((3S,3aR,6S,-6aR)-6-phenethyl-hexahydro-furo[3,2-b]furan-3-yl)-urea]: the IC50 worked out at 229 nM.

With `O=C(NC1CCCCC1)N[C@H]1CO[C@@H]2[C@@H](CCc3ccccc3)CO[C@@H]21` [Example 349, 1-Cyclohexyl-3-((3S,3aR,6S,6aR)-6-phenethyl-hexahydro-furo[3,2-b]furan-3-yl)-urea], the IC50 amounted to 37 nM.

Take `O=C(NC1CCCCC1)N[C@H]1CO[C@@H]2[C@@H](CCc3ccccn3)CO[C@@H]21` [Example 350, 1-Cyclohexyl-3-[(3S,3aR,6S,6aR)-6-(2-pyridin-2-yl-ethyl)-hexahydro-furo[3,2-b]furan-3-yl]-urea; trifluoroacetate]: the IC50 is 22 nM.

On to `CCCCOc1ccc(NC(=O)NC2COC3C(CCc4ccccc4)COC23)cc1` [Example 351, 1-(4-Butoxy-phenyl)-3-[(3S,3aR,6R)-6-((S)-phenethyl)-hexahydro-furo[3,2-b]furan-3-yl]-urea], for which the IC50 was 161 nM.

Take `COc1cc(NC(=O)N[C@H]2CO[C@H]3[C@H](CCc4ccccc4)CO[C@@H]32)cc(OC)c1` [Example 352, 1-(3,5-Dimethoxy-phenyl)-3-[(3S,3aR,6R)-6-((S)-phenethyl)-hexa-hydro-furo[3,2-b]furan-3-yl]-urea]: the IC50 came to 149 nM.

In the case of `Cc1cc(C)cc(NC(=O)N[C@H]2CO[C@H]3[C@H](CCc4ccccc4)CO[C@@H]32)c1` [Example 353, 1-(3,5-Dimethyl-phenyl)-3-[(3S,3aR,6R)-6-((S)-phenethyl)-hexa-hydro-furo[3,2-b]furan-3-yl]-urea], the IC50 was found to be 17 nM.

For `O=C(Nc1ccccc1)NC1COC2C(CCc3ccccc3)COC12` [Example 354, 1-[(3S,3aR,6R)-6-((S)-Phenethyl)-hexa-hydro-furo[3,2-b]furan-3-yl]-3-phenyl-urea], the IC50 stood at 127 nM.

As to `O=C(Nc1ccc(OCc2ccccc2)cc1)NC1COC2C(CCc3ccccc3)COC12` [Example 355, 1-(4-Benzyloxy-phenyl)-3-[(3S,3aR,6R)-6-((S)-phenethyl)-hexahydro-furo[3,2-b]furan-3-yl]-urea], the IC50 stood at 80 nM.

As for `O=C(NCc1ccc(F)cc1)NC1COC2C(CCc3ccccc3)COC12` [Example 356, 1-(4-Fluoro-benzyl)-3-[(3S,3aR,6R)-6-((S)-phenethyl)-hexahydro-furo[3,2-b]furan-3-yl]-urea], the IC50 is 140 nM.

Take `Cc1cccc(NC(=O)NC2COC3C(CCc4ccccc4)COC23)c1` [Example 357, 1-[(3S,3aR,6R)-6-((S)-Phenethyl)-hexahydro-furo[3,2-b]furan-3-yl]-3-m-tolyl-urea]: the IC50 stood at 84 nM.

`O=C(Nc1ccc(Cl)c(Cl)c1)NC1COC2C(CCc3ccccc3)COC12` [Example 358, 1-(3,4-Dichloro-phenyl)-3-[(3S,3aR,6R)-6-((S)-phenethyl)-hexahydro-furo[3,2-b]furan-3-yl]-urea]: the IC50 is 22 nM.

`Cc1cccc(CNC(=O)NC2COC3C(CCc4ccccc4)COC23)c1` [Example 359, 1-(3-Methyl-benzyl)-3-[(3S,3aR,6R)-6-((S)-phenethyl)-hexahydro-furo[3,2-b]furan-3-yl]-urea]: the IC50 amounted to 111 nM.

For the compound `O=C(Nc1ccc(F)cc1)NC1COC2C(CCc3ccccc3)COC12` [Example 360, 1-(4-Fluoro-phenyl)-3-[(3S,3aR,6R)-6-((S)-phenethyl)-hexahydro-furo[3,2-b]furan-3-yl]-urea], the IC50 was 81 nM.

Regarding `COc1cc(NC(=O)NC2COC3C(CCc4ccsc4)COC23)cc(OC)c1` [Example 361, 1-(3,5-Dimethoxy-phenyl)-3-[(3S,3aR,-6R)-6-((S)-2-thiophen-3-yl-ethyl)-hexahydro-furo[3,2-b]furan-3-yl]-urea], the IC50 amounted to 39 nM.

Regarding `Cc1cc(C)cc(NC(=O)NC2COC3C(CCc4ccsc4)COC23)c1` [Example 362, 1-(3,5-Dimethyl-phenyl)-3-[(3S,3aR,6R)-6-((S)-2-thiophen-3-yl-ethyl)-hexahydro-furo[3,2-b]furan-3-yl]-urea], the IC50 is 9 nM.

With `O=C(Nc1ccccc1)NC1COC2C(CCc3ccsc3)COC12` [Example 363, 1-Phenyl-3-[(3S,3aR,6R)-6-((S)-2-thiophen-3-yl-ethyl)-hexahydro-furo[3,2-b]furan-3-yl]-urea], the IC50 was 25 nM.

In the case of `O=C(NCc1ccc(F)cc1)NC1COC2C(CCc3ccsc3)COC12` [Example 364, 1-(4-Fluoro-benzyl)-3-[(3S,3aR,6R)-6-((S)-2-thiophen-3-yl-ethyl)-hexa-hydro-furo[3,2-b]furan-3-yl]-urea], the IC50 was found to be 29 nM.

Regarding `Cc1cccc(CNC(=O)NC2COC3C(CCc4ccsc4)COC23)c1` [Example 365, 1-(3-Methyl-benzyl)-3-[(3S,3aR,6R)-6-((S)-2-thiophen-3-yl-ethyl)-hexa-hydro-furo[3,2-b]furan-3-yl]-urea], the half-maximal inhibitory concentration (IC50) amounted to 145 nM.

As to `O=C(Nc1ccc(F)cc1)NC1COC2C(CCc3ccsc3)COC12` [Example 366, 1-(4-Fluoro-phenyl)-3-[(3S,3aR,6R)-6-((S)-2-thiophen-3-yl-ethyl)-hexa-hydro-furo[3,2-b]furan-3-yl]-urea], the IC50 amounted to 9 nM.

Turning to `O=C(Nc1ccc2c(c1)CCC2)N[C@H]1CO[C@@H]2[C@@H](CCc3ccsc3)CO[C@@H]21` [Example 367, 1-Indan-5-yl-3-[(3S,3aR,6S,6aR)-6-(2-thiophen-3-yl-ethyl)-hexahydro-furo[3,2-b]furan-3-yl]-urea], the IC50 was 12 nM.

Turning to `O=C(Nc1cccc(C(F)(F)F)c1)N[C@H]1CO[C@@H]2[C@@H](CCc3ccccc3)CO[C@@H]21` [Example 368, 1-((3S,3aR,6S,6aR)-6-Phenethyl-hexahydro-furo[3,2-b]furan-3-yl)-3-(3-trifluoromethyl-phenyl)-urea], the IC50 was found to be 68 nM.

As for `O=C(Nc1ccc2c(c1)OCCO2)N[C@H]1CO[C@@H]2[C@@H](CCc3ccccc3)CO[C@@H]21` [Example 369, 1-(2,3-Dihydro-benzo[1,4]dioxin-6-yl)-3-((3S,3aR,6S,6aR)-6-phenethyl-hexahydro-furo[3,2-b]furan-3-yl)-urea], the IC50 worked out at 22 nM.

For the compound `O=C(NCCc1cccs1)N[C@H]1CO[C@@H]2[C@@H](CCc3ccccc3)CO[C@@H]21` [Example 370, 1-((3S,3aR,6S,6aR)-6-Phenethyl-hexahydro-furo[3,2-b]furan-3-yl)-3-(2-thiophen-2-yl-ethyl)-urea], the IC50 was determined as 43 nM.
